# Measurements from patent publication US8377974B2 (Millennium Pharmaceuticals, Inc., priority 2004, dated 2013).
# pIC50: −log10 of the molar value.
# Target: T1, human plasma protein factor Xa (Homo sapiens, UniProt P00742)
# T1 construct: measure proteolytic activity of the enzyme (factor Xa); purchased Haematologic Technologies (Essex Junction, Vt.); host or cells: human plasma
# Assay: Factor Xa IC50 determination: cleavage of paranitroanilide substrate S-2765 in 96-well plates
# Assay type: biochemical
# Details: fXa 1 nM, S-2765 100 μM, Tris buffered saline pH 7.4, room temperature
# Outline: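 Human plasma factor Xa (1 nM) preincubated 5 min at room temperature with inhibitor (0.01 nM–10 μM final) in Tris-buffered saline pH 7.4 with 5 mM CaCl2, 0.1% BSA, 5% DMSO. S-2765 at 100 μM final; hydrolysis at 405 nm over 2 min. IC50 from 4-parameter fit of initial velocities.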
# T1 sequence (P00742 235-488 limits assumed): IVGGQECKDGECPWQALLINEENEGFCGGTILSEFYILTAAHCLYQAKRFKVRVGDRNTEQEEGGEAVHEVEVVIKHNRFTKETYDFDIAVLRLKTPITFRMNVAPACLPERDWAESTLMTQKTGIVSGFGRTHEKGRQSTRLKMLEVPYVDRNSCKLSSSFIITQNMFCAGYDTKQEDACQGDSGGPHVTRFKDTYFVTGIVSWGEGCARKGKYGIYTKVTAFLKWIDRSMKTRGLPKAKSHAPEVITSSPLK
# T1 sequence (P00742 41-179 partner limits assumed): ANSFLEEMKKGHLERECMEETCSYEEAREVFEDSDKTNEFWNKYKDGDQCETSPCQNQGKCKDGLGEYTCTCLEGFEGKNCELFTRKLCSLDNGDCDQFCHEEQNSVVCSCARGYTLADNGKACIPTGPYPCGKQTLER
row,Structure (SMILES),pIC50
1,"CN1CCN=C1c1ccc(-n2cc(CNC(=O)c3ccc(Cl)s3)nn2)c(F)c1 [Example 324, 5-Chloro-N-((1-(2-fluoro-4-(1-methyl-4,5-dihydro-1H-imidazol-2-yl)phenyl)-1H-1,2,3-triazol-4-yl)methyl)thiophene-2-carboxamide]",≥ 7.00
2,"O=C(NCc1cn(-c2ccc(N3CCOCC3=O)cc2)nn1)c1ccc(Cl)s1 [Example 301, 5-Chloro-N-((1-(4-(3-oxomorpholino)phenyl)-1H-1,2,3-triazol-4-yl)methyl)thiophene-2-carboxamide]",≥ 7.00
3,"N=C(c1ccc(C2=NOC(CNC(=O)c3ccc(Cl)s3)C2)c(N2CCOCC2)c1)N1CCCCC1 (centres unmarked) [Example 85, 5-Chloro-thiophene-2-carboxylic acid {3-[4-(imino-piperidin-1-yl-methyl)-2-morpholin-4-yl-phenyl]-4,5-dihydro-isoxazol-5-ylmethyl}-amide]",6.30 to 7.00
4,"N=C(c1ccc(-c2noc(CNC(=O)c3ccc(Cl)s3)n2)cc1)N1CCCC1 [Example 336, 5-Chloro-N-((3-(4-(imino(pyrrolidin-1-yl)methyl)phenyl)-1,2,4-oxadiazol-5-yl)methyl)thiophene-2-carboxamide]",≥ 7.00
5,"O=C(NCC1CC(c2cccc(-c3cccc(CN4CCCC4)c3)c2)=NO1)c1ccc(Cl)s1 (centres unmarked) [Example 265, 5-Chloro-thiophene-2-carboxylic acid [3-(3′-pyrrolidin-1-ylmethyl-biphenyl-3-yl)-4,5-dihydro-isoxazol-5-ylmethyl]-amide]",≤ 6.30
6,"N=C(c1ccc(-c2csc(CNC(=O)c3ccc(Cl)s3)n2)cc1)N1CCCCC1 [Example 363, 5-Chloro-N-((4-(4-(imino(piperidin-1-yl)methyl)phenyl)thiazol-2-yl)methyl)thiophene-2-carboxamide]",≤ 6.30
7,"N=C(c1ccc(-c2cc(CNC(=O)c3ccc(Cl)s3)on2)c(F)c1)N1CCCCC1 [Example 72, 5-Chloro-thiophene-2-carboxylic acid {3-[2-fluoro-4-(imino-piperidin-1-yl-methyl)-phenyl]-isoxazol-5-ylmethyl}-amide]",≥ 7.00
8,"CCOC(=O)C1CCN(C(=N)c2ccc(-c3nc(CNC(=O)c4ccc(Cl)s4)co3)cc2)CC1 [Example 342, Ethyl 1-((4-(4-((2-chlorothiophene-5-carboxamido)methyl)oxazol-2-yl)phenyl)(imino)methyl)piperidine-4-carboxylate]",6.30 to 7.00
9,"N=C(c1ccc(-n2cc(CNC(=O)c3ccc(Cl)s3)nn2)cc1)N1CCCCC1 [Example 319, 5-Chloro-N-((1-(4-(imino(piperidin-1-yl)methyl)phenyl)-1H-1,2,3-triazol-4-yl)methyl)thiophene-2-carboxamide]",≥ 7.00
10,"CN(C)C(=N)c1ccc(-c2cc(CN(C)C(=O)c3ccc(Cl)s3)on2)cc1 [Example 35, 5-Chloro-thiophene-2-carboxylic acid {3-[4-(N,N-dimethyl-carbamimidoyl)-phenyl]-isoxazol-5-ylmethyl}-methyl-amide]",≤ 6.30
11,"CN(C)Cc1ccc(-c2cccc(C3=NOC(CNC(=O)c4ccc(Cl)s4)C3)c2)cc1 (centres unmarked) [Example 266, 5-Chloro-thiophene-2-carboxylic acid [3-(4′-dimethylaminomethyl-biphenyl-3-yl)-4,5-dihydro-isoxazol-5-ylmethyl]-amide]",≤ 6.30
12,"CN1CCCN(c2ccc(C3=NOC(CNC(=O)c4ccc(Cl)s4)C3)c(F)c2)CC1 (centres unmarked) [Example 248, 5-Chloro-thiophene-2-carboxylic acid {3-[2-fluoro-4-(4-methyl-[1,4]diazepan-1-yl)-phenyl]-4,5-dihydro-isoxazol-5-ylmethyl}-amide]",≥ 7.00
13,"N=C(c1ccc(-n2cc(CNC(=O)c3ccc(Cl)s3)cn2)cc1)N1CCC1 [Example 327, N-((1-(4-(Azetidin-1-yl(imino)methyl)phenyl)-1H-pyrazol-4-yl)methyl)-5-chlorothiophene-2-carboxamide]",≥ 7.00
14,"O=C(NCC1CC(c2ccc(-c3ccccc3CN3CCCC3)cc2)=NO1)c1ccc(Cl)s1 (centres unmarked) [Example 195, 5-Chloro-thiophene-2-carboxylic acid [3-(2′-pyrrolidin-1-ylmethyl-biphenyl-4-yl)-4,5-dihydro-isoxazol-5-ylmethyl]-amide]",≥ 7.00
15,"CN1CCCN(c2ccc(-n3cc(CNC(=O)c4ccc(Cl)s4)nn3)cn2)CC1 [Example 383, 5-Chloro-N-((1-(6-(4-methyl-1,4-diazepan-1-yl)pyridin-3-yl)-1H-1,2,3-triazol-4-yl)methyl)thiophene-2-carboxamide]",≥ 7.00
16,"CN(c1ccc(C2=NOC(CNC(=O)c3ccc(Cl)s3)C2)cc1)c1ccnc(N)n1 (centres unmarked) [Example 231, 5-Chloro-thiophene-2-carboxylic acid (3-{4-[(2-amino-pyrimidin-4-yl)-methyl-amino]-phenyl}-4,5-dihydro-isoxazol-5-ylmethyl)-amide]",≤ 6.30

row,Structure (SMILES),pIC50
1,"O=C(NCC1CC(c2ccc(N3CCSCC3=O)cc2)=NO1)c1ccc(Cl)s1 (centres unmarked) [Example 244, 5-Chloro-thiophene-2-carboxylic acid {3-[4-(3-oxo-thiomorpholin-4-yl)-phenyl]-4,5-dihydro-isoxazol-5-ylmethyl}-amide]",6.30 to 7.00
2,"N=C(c1ccc(-c2nc(CNC(=O)c3ccc(Cl)s3)cs2)cc1)N1CCCC1 [Example 352, 5-Chloro-N-((2-(4-(imino(pyrrolidin-1-yl)methyl)phenyl)thiazol-4-yl)methyl)thiophene-2-carboxamide]",≥ 7.00
3,"COCCN(C)C(=N)c1ccc(C2=NOC(C)(CNC(=O)c3ccc(Cl)s3)C2)cc1 (centres unmarked) [Example 66, 5-Chloro-thiophene-2-carboxylic acid (3-{-4-[N-(2-methoxy-ethyl)-N-methyl-carbamimidoyl]-phenyl}-5-methyl-4,5-dihydro-isoxazol-5-ylmethyl)-amide]",6.30 to 7.00
4,"O=C(NCC1CC(c2ccc(Nc3c(Cl)cncc3Cl)cc2)=NO1)c1ccc(Cl)s1 (centres unmarked) [Example 402, 5-Chloro-N-((3-(4-(3,5-dichloropyridin-4-ylamino)phenyl)-4,5-dihydroisoxazol-5-yl)methyl)thiophene-2-carboxamide]",≤ 6.30
5,"CN(c1ccncc1)c1ccc(-c2cc(CNC(=O)c3ccc(Cl)s3)on2)cc1 [Example 255, 5-Chloro-thiophene-2-carboxylic acid {3-[4-(methyl-pyridin-4-yl-amino)-phenyl]-isoxazol-5-ylmethyl}-amide]",≤ 6.30
6,"N=C(c1ccc(-c2cc(CNC(=O)c3ccc(Cl)s3)on2)c(N2CCOCC2)c1)N1CCCCC1 [Example 101, 5-Chloro-thiophene-2-carboxylic acid {3-[4-(imino-piperidin-1-yl-methyl)-2-morpholin-4-yl-phenyl]-isoxazol-5-ylmethyl}-amide]",≥ 7.00
7,"O=C(NCc1cc(-c2ccc(N3CCOCC3)cc2)no1)c1ccc(Cl)s1 [Example 257, 5-Chloro-thiophene-2-carboxylic acid [3-(4-morpholin-4-yl-phenyl)-isoxazol-5-ylmethyl]-amide]",≤ 6.30
8,"CCOc1cc(C(=N)N2CCCCC2)ccc1-c1cc(CNC(=O)c2ccc(Cl)s2)on1 [Example 125, 5-Chloro-thiophene-2-carboxylic acid {3-[2-ethoxy-4-(imino-piperidin-1-yl-methyl)-phenyl]-isoxazol-5-ylmethyl}-amide]",≥ 7.00
9,"N=C(c1ccc(C2=NOC(CNC(=O)c3ccc(Cl)s3)C2)c(OC2CCCC2)c1)N1CCCC1 (centres unmarked) [Example 114, 5-Chloro-thiophene-2-carboxylic acid {3-[2-cyclopentyloxy-4-(imino-pyrrolidin-1-yl-methyl)-phenyl]-4,5-dihydro-isoxazol-5-ylmethyl}-amide]",≥ 7.00
10,"CN1CCN=C1c1ccc(C2=NOC(CNC(=O)c3ccc(Cl)s3)C2)c(OC2CCCCC2)c1 (centres unmarked) [Example 116, 5-Chloro-thiophene-2-carboxylic acid {3-[2-cyclohexyloxy-4-(1-methyl-4,5-dihydro-1H-imidazol-2-yl)-phenyl]-4,5-dihydro-isoxazol-5-ylmethyl}-amide]",≥ 7.00
11,"CC(O)CNC(=O)c1ccc(C2=NOC(CNC(=O)c3ccc(Cl)s3)C2)cc1 (centres unmarked) [Example 399, N-((3-(4-((2-Hydroxypropyl)carbamoyl)phenyl)-4,5-dihydroisoxazol-5-yl)methyl)-5-chlorothiophene-2-carboxamide]",≤ 6.30
12,"O=C(NCC1CC(c2ccc(N3CCOCCC3=O)cc2)=NO1)c1ccc(Cl)s1 (centres unmarked) [Example 246, 5-Chloro-thiophene-2-carboxylic acid {3-[4-(5-oxo-[1,4]oxazepan-4-yl)-phenyl]-4,5-dihydro-isoxazol-5-ylmethyl}-amide]",≥ 7.00
13,"COCCN(C)C(=N)c1ccc(-c2cc(CN(C)C(=O)c3ccc(Cl)s3)on2)cc1 [Example 46, 5-Chloro-thiophene-2-carboxylic acid (3-{4-[N-(2-methoxy-ethyl)-N-methyl-carbamimidoyl]-phenyl}-isoxazol-5-ylmethyl)-methyl-amide]",≤ 6.30
14,"COCCN(C)Cc1ccc(Cl)cc1-c1ccc(C2=NOC(CNC(=O)c3ccc(Cl)s3)C2)cc1 (centres unmarked) [Example 206, 5-Chloro-thiophene-2-carboxylic acid [3-(5′-chloro-2′-{[(2-methoxy-ethyl)-methyl-amino]-methyl}-biphenyl-4-yl)-4,5-dihydro-isoxazol-5-ylmethyl]-amide]",6.30 to 7.00
15,"COc1ccc(C2=NOC(CNC(=O)c3ccc(Cl)s3)C2)cc1 (centres unmarked) [Example 150, 5-Chloro-thiophene-2-carboxylic acid [3-(4-methoxy-phenyl)-4,5-dihydro-isoxazol-5-ylmethyl]-amide]",≤ 6.30
16,"O=C(NCC1CC(c2ccc(Nc3ccnc4c(C(F)(F)F)cccc34)cc2)=NO1)c1ccc(Cl)s1 (centres unmarked) [Example 393, 5-Chloro-N-((3-(4-(8-(trifluoromethyl)quinolin-4-ylamino)phenyl)-4,5-dihydroisoxazol-5-yl)methyl)thiophene-2-carboxamide]",≤ 6.30
